Article PMC12040169 (PLOS Biology, 2025)

Assay: in vitro
Details: human, hela cells, % viability

| SMILES | viability at 28.5 h, 10 µM [%] | viability at 28.5 h, 10 µM (bulk resorufin, single well) [%] |
| --- | --- | --- |
| COc1ccc(-c2cnccc2-n2ccnc2)cn1 [CBK177147] | 113 |  |
| O=C(O)CC1CCN(c2ccc(C(F)(F)F)cn2)CC1 [CBK286850] | 90.4 |  |
| O=C(CSCc1ccccc1Br)Nc1ccccc1-c1ccccc1 [CBK265959] | 88.4 |  |
| O=C(CCSc1ccc(Cl)cc1)NCCc1ccccc1 [CBK263800] | 86.4 |  |
| Cc1nc(C2CN(Cc3ccc(Cl)c4cccnc34)CCO2)no1 (stereo not shown) [CBK305384] | 102 |  |
| CCCC/C=C/c1cnc(N)c(-c2ccc(CCC(=O)O)cc2)n1 [CBK064127] | 95.5 |  |
| CS(=O)(=O)c1ccc(CN2CCOC3(CCN(C(=O)c4ccc5ccccc5c4)CC3)C2)cc1 [CBK161122A] | 104 |  |
| CC(=O)NCCSc1nccc(C(F)(F)F)n1 [CBK105301] | 102 |  |
| C=CCn1c(Cc2csc(NC(=O)c3ccc(C)c(F)c3)n2)n[nH]c1=S [CBK295307] | 80.6 |  |
| Cc1ncsc1CCN(C)C(=O)Cn1nc(C)c2ccccc2c1=O [CBK306893] | 86.3 |  |
| COc1cc(NC(=O)Nc2ccc3c(c2)COC2(CCNCC2)O3)cc(OC)c1OC [CBK091530T] |  | 94.9 |
| O=C(O)c1ccc(OCCNS(=O)(=O)c2ccc3oc4ccccc4c3c2)cc1 [CBK299797] | 90.8 |  |
| COc1cccc(COc2nccnc2/C=C/c2ccccc2)c1OC [CBK106888] | 89.3 |  |
| Cn1cc(CN(Cc2ccccc2)CC2CCCO2)cn1 (stereo not shown) [CBK283233] | 85.1 |  |
| O=c1nc(NS(=O)(=O)c2ccccc2Br)c(F)c[nH]1 [CBK067573] | 76.6 |  |
| CCCC/N=C(\NS(=O)(=O)c1ccc(C)cc1)OCC [CBK022731] | 106 |  |
| Cn1nc2c(cc1=O)CN(C(=O)c1ccoc1)CC2 [CBK304330] | 119 |  |
| Cc1nc(C)n(CC2CCCN(Cc3cn4c(C)cccc4n3)C2)n1 (stereo not shown) [CBK304007] | 97.7 |  |
| O=C(CSc1ccc2ccccc2n1)NNC(=O)c1cccc([N+](=O)[O-])c1 [CBK262506] | 91.7 |  |
| COc1ccc(OC)c(NC(=O)c2ccc3nccnc3c2)c1 [CBK268997] | 106 |  |
| CCOC(=O)C(NCc1nc(-c2cccc(C(F)(F)F)c2)no1)C(C)C (stereo not shown) [CBK305445] | 93 |  |
| CNC(=O)CN1C[C@H](NC(=O)c2cccc3c2NCCC3)[C@@H](C(C)C)C1 [CBK307073] | 80.6 |  |
| OCCCNC(=S)Nc1ccc(Cl)cc1Cl [CBK265264] | 96.6 |  |

| SMILES | viability at 28.5 h, 10 µM [%] | viability at 28.5 h, 10 µM (bulk resorufin, single well) [%] |
| --- | --- | --- |
| CN1CCN(C2CC(=O)N(c3ccc(Oc4ccccc4)cc3)C2=O)CC1 (stereo not shown) [CBK265434] | 103 |  |
| COCCOCC(=O)N1CC(=O)N(c2ccccc2C#N)CC1C (stereo not shown) [CBK307258] | 91.7 |  |
| CN(C)c1ccc(Nc2cc(-c3ccc(OCc4ccccc4)cc3)ncn2)cc1 [CBK090941] | 113 |  |
| CC(C)c1ccc(S(=O)(=O)N(CCC#N)Cc2ccccc2)cc1 [CBK043565] | 90.7 |  |
| CCNC(=O)N1CCC[C@@H](O)[C@H](NC(=O)c2ccc(OC)cc2)C1 [CBK289066] | 88.2 |  |
| O=C(OCCc1c[nH]c2ccccc12)N1CCOCC1 [CBK200415] | 106 |  |
| CCCC(=O)c1ccc(S(=O)(=O)N2CCN(Cc3cccc(F)c3C)CC2)cc1 [CBK063152] | 88.4 |  |
| CN(C)CCCn1cccc1C=O [CBK261993G] | 90.3 |  |
| Nc1nc(-c2ccc(F)cc2)c2c(n1)-c1ccccc1C2=O [CBK287881] | 114 |  |
| C=CCSc1nc2sc3c(c2c(=O)[nH]1)CCCC3 [CBK287344] | 110 |  |
| O=C(O)/C=C\C(=O)Nc1ccc(Oc2ccccc2)cc1 [CBK261216] | 102 |  |
| CCN(CC)c1ccc(C(=O)CN2CCN(c3nccnc3OCCN3CCOCC3)CC2)cc1 [CBK082898T] | 97.4 |  |
| S=C(Nc1ccccc1)N(Cc1ccccc1)Cc1ccncc1 [CBK267991] | 96.8 |  |
| O=C(CCC1CCCC1)N1C[C@@H]2CCCCN(CC3CC3)[C@@H]2C1 [CBK285531] | 94 |  |
| CS(=O)(=O)N1CC2(CCN(Cc3ccc4nsnc4c3)CC2)c2ccccc21 [CBK136957] | 92.9 |  |
| O=C1NC2(CCC2)C(=O)N1Cc1coc(-c2cccs2)n1 [CBK305209] | 95.9 |  |
| O=C(NCCS(=O)(=O)c1ccccc1)c1cnc(-c2ccc(Cl)cc2)c(-c2ccco2)c1 [CBK037546] | 96.4 |  |
| Cc1cccc(C(=O)Oc2ccc(-n3ccnc3)cc2)c1 [CBK090137] | 101 |  |
| c1nc(OCCN2CCOCC2)cc(N2CCCN(CCN3CCOCC3)CC2)n1 [CBK083647] | 103 |  |
| COc1ccc(Cc2nc(-c3ccccc3)c3ccccc3n2)cc1F [CBK291176] | 80.2 |  |
| Cc1nc(CCCn2cnc3cnccc3c2=O)sc1C [CBK306610] | 102 |  |
| Cc1cc2ccccc2n2c(=O)n(CC(=O)N3CCCCC3C)nc12 (stereo not shown) [CBK283882] | 87.1 |  |
| CC(C)N(C(=O)c1ccccc1-c1cnc2cccnn12)C(C)C [CBK306900] | 97.8 |  |
